Reference: ChEMBL document CHEMBL1149956, “Synthesis and biological evaluation of new 5-HPETE analogs” (Bioorg Med Chem Lett, 1994)
Active and inactive are the calls of the source. No cut-off for these calls is given here.

Key:
[1] = target: T1, Polyunsaturated fatty acid 5-lipoxygenase (Homo sapiens) (UniProt P09917); assay: Tested for the inhibition of 5-lipoxygenase from human polymorphonuclear leukocytes(PMN) at 10 uM concentration of the compound; IA= Inactive
T1 sequence (whole entry): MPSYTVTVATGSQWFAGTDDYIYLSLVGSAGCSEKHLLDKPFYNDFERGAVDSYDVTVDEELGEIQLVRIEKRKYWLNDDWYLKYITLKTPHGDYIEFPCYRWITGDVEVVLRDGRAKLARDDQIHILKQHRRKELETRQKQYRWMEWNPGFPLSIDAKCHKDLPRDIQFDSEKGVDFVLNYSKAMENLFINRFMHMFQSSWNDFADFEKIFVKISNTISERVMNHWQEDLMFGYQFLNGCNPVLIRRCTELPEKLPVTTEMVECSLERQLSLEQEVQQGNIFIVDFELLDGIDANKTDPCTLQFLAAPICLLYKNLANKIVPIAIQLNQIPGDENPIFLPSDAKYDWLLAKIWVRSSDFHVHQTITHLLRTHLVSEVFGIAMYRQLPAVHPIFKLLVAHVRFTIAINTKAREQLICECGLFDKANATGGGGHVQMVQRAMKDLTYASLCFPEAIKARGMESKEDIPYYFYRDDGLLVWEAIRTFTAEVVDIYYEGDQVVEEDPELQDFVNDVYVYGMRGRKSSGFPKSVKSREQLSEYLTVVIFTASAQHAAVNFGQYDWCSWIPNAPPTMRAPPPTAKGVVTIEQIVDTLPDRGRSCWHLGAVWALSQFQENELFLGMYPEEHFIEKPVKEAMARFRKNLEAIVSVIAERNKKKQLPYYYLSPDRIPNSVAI

[2] = target: T1, Polyunsaturated fatty acid 5-lipoxygenase (Homo sapiens); assay: Tested for the inhibition of 5-lipoxygenase from human polymorphonuclear leukocytes(PMN) at 10 uM concentration of the compound; value ranges from 70-90

inhibition [1] | inhibition [2] | Structure (SMILES)
inactive |  | CCCCCCCCCCC/C=C\C=C\c1cc(C/C=N/O)no1
 | 70% | CCCCCCCCCCC/C=C\C=C\c1cc(CC(=O)OC)no1

Second part, the compound before the results:

Structure (SMILES) | inhibition [1] | inhibition [2]
CCCCC/C=C\C/C=C\C/C=C\C=C\C1CC(CC(=O)OC)=NO1 (stereo not given) | inactive | 
CCCCCCCCCCC/C=C\C=C\C1CC(CC(=O)OC)=NO1 (stereo not given) |  | 70%
CCCCC/C=C\C/C=C\C/C=C\C=C\c1cc(CC(=O)OC)no1 |  | 70%
